Measurements taken from patent publication US20140023611A1 (priority 2010, published 2014).
Where two headings read alike, the source gives them in different places.

Legend:
[1] = human absorption data, common drugs; cited from earlier work
[2] = molecular target: T1, rat NaP2b (SLC34A2) (Rattus norvegicus, UniProt Q9JJ09); experiment: NaP2b-mediated Pi transport (33P uptake) in transfected HEK293 cells, rat NaP2b; assay type: cell-based; settings: Table 2
T1 construct: host or cells: HEK293
T1 sequence (Q9JJ09 1-695): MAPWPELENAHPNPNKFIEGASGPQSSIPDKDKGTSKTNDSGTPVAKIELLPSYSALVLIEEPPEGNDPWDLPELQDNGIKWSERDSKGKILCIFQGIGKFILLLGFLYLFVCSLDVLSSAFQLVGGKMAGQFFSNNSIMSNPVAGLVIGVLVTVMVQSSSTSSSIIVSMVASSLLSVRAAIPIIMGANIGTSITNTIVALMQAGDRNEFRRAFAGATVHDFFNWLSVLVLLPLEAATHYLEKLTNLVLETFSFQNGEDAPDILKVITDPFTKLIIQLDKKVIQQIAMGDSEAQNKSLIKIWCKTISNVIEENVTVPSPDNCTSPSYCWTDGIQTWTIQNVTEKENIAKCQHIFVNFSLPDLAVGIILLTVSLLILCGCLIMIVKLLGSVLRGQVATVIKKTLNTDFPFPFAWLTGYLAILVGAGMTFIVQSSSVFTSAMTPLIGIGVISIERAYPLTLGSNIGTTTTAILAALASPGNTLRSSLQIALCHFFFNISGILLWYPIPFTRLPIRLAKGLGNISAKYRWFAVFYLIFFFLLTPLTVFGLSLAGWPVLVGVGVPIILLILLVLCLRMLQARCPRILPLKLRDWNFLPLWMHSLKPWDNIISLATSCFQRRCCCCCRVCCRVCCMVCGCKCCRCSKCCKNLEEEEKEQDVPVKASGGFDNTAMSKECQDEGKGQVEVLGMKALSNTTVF
Description: HEK293 cells were obtained from the American Type Culture collection and propagated per their instructions. Expression clones for rat and human NaP2b (SLC34A2) were obtained from Open Biosystems (Catalog numbers MRN1768-9510282, and MHS1010-99823026, respectively). The sequence of the human protein was mutated to insert a threonine after residue 37, and to introduce a N39D mutation.
(§1) The rate of phosphate (Pi) uptake into HEK293 cells was measured using a modification of the method described by Mohrmann et al. (Mohrmann, I., Mohrmann, M., Biber, J., and Murer, H. (1986) Am. J. Phys. 250(3 Pt 1):G323-30.) Transfected HEK293 cells were treated with a pharmacological agent to minimize endogenous PiT-mediated phosphate transport activity, such that the only remaining sodium-dependent phosphate transport activity is that which was bestowed by introduction of the NaP2b genes.
(§2) Cells were seeded into 96-well plates at 25,000 cells/well and cultured overnight. Lipofectamine 2000 (Invitrogen) was used to introduce the NaP2b cDNA, and the cells were allowed to approach confluence during a second overnight incubation. […] Cells were then overlayed with either choline uptake buffer or sodium uptake buffer (14 mM Tris, 137 mM sodium chloride, 5.4 mM KCl, 2.8 mM CaCl2, 1.2 mM MgSO4, 100 uM KH2PO4, PiT-silencing agent, 1 mg/mL Bovine Serum Albumin, pH 7.4) containing 6-9 uCi/mL ^33P orthophosphoric acid (Perkin Elmer) and test compound. Each compound was tested at twelve concentrations ranging from 0.1 nM to 30 uM. Assays were run in duplicate.
After incubation for 3-30 minutes at room temperature, assay mixtures were removed, and the cells were washed twice with ice cold stop solution (137 mM sodium chloride, 14 mM Tris, pH 7.4). Cells were lysed by addition of 20 μL 0.1% Tween 80 followed by 100 μL scintillation fluid, and counted using a TopCount (Perkin Elmer).
pIC50 (the negative log of the IC50) values of the test compounds were calculated using GraphPad Prism.
HEK293 cells were obtained from the American Type Culture collection and propagated per their instructions. Expression clones for rat and mouse NaP2b (SLC34A2) cDNAs were obtained from Open Biosystems (Catalog numbers MRN1768-9510282 and MMM1013-98478398 respectively).
as §1, with “phosphate” for “phosphate (Pi)”
as §2, with “agent, 0.1% wt/v bovine serum albumin,” for “agent, 1 mg/mL Bovine Serum Albumin,”, “Each compounds” for “Each compound”
After incubation for 3-30 minutes at room temperature, assay mixtures were removed, and the cells were washed twice with ice cold stop solution (137 mM sodium chloride, 14 mM Tris, pH 7.4).

[3] = Structure (V) examples, rat NaP2b, HEK293, read-out: pIC50 Range (converted)

Structure (SMILES) | IC50 [2, 3] [µM] | % FA [1] [%] | further results
OC[C@H]1O[C@@H](O[C@@H]2[C@@H](CO)OC(O)(CO)[C@H]2O)[C@H](O)[C@@H](O)[C@H]1O (mixture of isomers) [lactulose] | – | 0.6 | –
O=C(O)CCSCc1cccc(C(=O)Nc2ccc(N3CCCCC3)cc2C(=O)Nc2cnc(-c3cccc(C(F)(F)F)c3)cn2)c1 [Example 12] | – | – | IC50 ([2]; Structure (III) examples, HEK293, 0.1 mM phosphate, read-out: pIC50 range for rat Nap2b (converted)): 1 to 7.94 µM
C=CCc1ccccc1OCC(O)CNC(C)C (centres unmarked) [alprenolol] | – | 96 | –
O=C(O)P(=O)(O)O [foscarnet] | – | 17 | –
OC[C@@H](O)[C@@H](O)[C@H](O)[C@H](O)CO [mannitol] | – | 26 | –
Cc1ccccc1N1C(=O)c2cc(S(N)(=O)=O)c(Cl)cc2NC1C (centres unmarked) [metolazone] | – | 64 | –
O=C(O)c1cc(/N=N/c2ccc(O)c(C(=O)O)c2)ccc1O [olsalazine] | – | 2.3 | –
C=CCOc1ccccc1OCC(O)CNC(C)C (centres unmarked) [oxprenolol] | – | 97 | –
CC(C)NCC(O)COc1cccc2[nH]ccc12 (centres unmarked) [pindolol] | – | 92 | –
CC(=O)Nc1ccc(OCC(O)CNC(C)C)cc1 (centres unmarked) [practolol] | – | 95 | –
OC[C@H]1O[C@H](OC[C@H]2O[C@H](O[C@]3(CO)O[C@H](CO)[C@@H](O)[C@@H]3O)[C@H](O)[C@@H](O)[C@@H]2O)[C@H](O)[C@@H](O)[C@H]1O [raffinose] | – | 0.3 | –
O=C(O)c1cc(/N=N/c2ccc(S(=O)(=O)Nc3ccccn3)cc2)ccc1O [sulfasalazine] | – | 12 | –
CCN1CCCC1CNC(=O)c1cc(S(N)(=O)=O)ccc1OC (centres unmarked) [sulpiride] | – | 36 | –
NC[C@H]1CC[C@H](C(=O)O)CC1 [tranexamic acid] | – | 55 | –

Further lines, with some results ahead:

IC50 [2, 3] [µM] | Structure (SMILES) | % FA [1] [%] | further results
0.01 to 0.0794 | O=C(Nc1ccc(Cl)cc1C(=O)N/N=C/c1ccc(Cl)c(C(F)(F)F)c1)c1cccc(Cn2cc(CCO)nn2)c1 [Ex. 30] | – | –
0.01 to 0.0794 | O=C(Nc1ccc(N2CCCCC2)cc1C(=O)N/N=C/c1ccc(Cl)c(C(F)(F)F)c1)c1cccc(C#CCCO)c1 [Ex. 31] | – | –
0.1 to 0.794 | [N-]=[N+]=NCCOCCOCCOCCNCc1cccc(C(=O)Nc2ccc(N3CCCCC3)cc2C(=O)N/N=C/c2ccc(Cl)c(C(F)(F)F)c2)c1 [Ex. 32] | – | –
0.1 to 0.794 | [N-]=[N+]=NCCOCCOCCOCCNC(=O)CCSCc1cccc(C(=O)Nc2ccc(N3CCCCC3)cc2C(=O)N/N=C/c2ccc(Cl)c(C(F)(F)F)c2)c1 [Ex. 33] | – | –
0.1 to 0.794 | [N-]=[N+]=NCCOCCOCCOCCNC(=O)C1CCN(Cc2cccc(C(=O)Nc3ccc(N4CCCCC4)cc3C(=O)N/N=C/c3ccc(Cl)c(C(F)(F)F)c3)c2)CC1 [Ex. 34] | – | –
1 to 7.94 | CC(=O)N[C@@H](CCCCNC(=O)CCSCc1cccc(C(=O)Nc2ccc(N3CCCCC3)cc2C(=O)N/N=C/c2ccc(Cl)c(C(F)(F)F)c2)c1)C(=O)O [Ex. 35] | – | –
0.1 to 0.794 | O=C(Nc1ccc(N2CCCCC2)cc1C(=O)N/N=C/c1ccc(Cl)c(C(F)(F)F)c1)c1cccc(Cc2nc(CCO)cs2)c1 [Ex. 45, (E)-N-(2-(2-(4-chloro-3-(trifluoromethyl)benzylidene)hydrazine-carbonyl)-4-(piperidin-1-yl)phenyl)-3-((4-(2-hydroxyethyl)thiazol-2-yl)methyl)benzamide] | – | –
0.1 to 0.794 | O=C(CCSCc1cccc(C(=O)Nc2ccc(N3CCCCC3)cc2C(=O)N/N=C/c2ccc(Cl)c(C(F)(F)F)c2)c1)Nc1ccc(B(O)O)cc1 [Ex. 46, (E)-4-(3-(3-(2-(2-(4-chloro-3-(trifluoromethyl)benzylidene)hydrazinecarbonyl)-4-(piperidin-1-yl)phenylcarbamoyl)benzylthio)propanamido)phenylboronic acid] | – | –
0.1 to 0.794 | COCCNC(=O)CC[S+]([O-])Cc1cccc(C(=O)Nc2ccc(N3CCCCC3)cc2C(=O)N/N=C/c2ccc(Cl)c(C(F)(F)F)c2)c1 (centres unmarked) [Ex. 51, (E)-N-(2-(2-(4-chloro-3-(trifluoromethyl)benzylidene)hydrazinecarbonyl)-4-(piperidin-1-yl)phenyl)-3-((3-(2-methoxyethylamino)-3-oxopropylsulfinyl)methyl)benzamide] | – | –
0.1 to 0.794 | O=C(Nc1ccc(N2CCCCC2)cc1C(=O)N/N=C/c1ccc(Cl)c(C(F)(F)F)c1)c1cccc(Cn2cc(CO)nn2)c1 [Example 8] | – | –
1 to 7.94 | NCc1cn(Cc2cccc(C(=O)Nc3ccc(N4CCCCC4)cc3C(=O)N/N=C/c3ccc(Cl)c(C(F)(F)F)c3)c2)nn1 [Example 10] | – | –
1 to 7.94 | NC(Cc1cn(Cc2cccc(C(=O)Nc3ccc(N4CCCCC4)cc3C(=O)N/N=C/c3ccc(Cl)c(C(F)(F)F)c3)c2)nn1)C(=O)O (centres unmarked) [Example 11] | – | –
0.1 to 0.794 | O=C(O)c1ccc(-c2cn(Cc3cccc(C(=O)Nc4ccc(N5CCCCC5)cc4C(=O)N/N=C/c4ccc(Cl)c(C(F)(F)F)c4)c3)nn2)cc1 [Example 12] | – | –
1 to 7.94 | NCCOCCOCCOCCc1cn(Cc2cccc(C(=O)Nc3ccc(N4CCCCC4)cc3C(=O)N/N=C/c3ccc(Cl)c(C(F)(F)F)c3)c2)nn1 [Example 25] | – | –
10 to 100 | O=C(Nc1ccc(N2CCCCC2)cc1C(=O)N/N=C/c1ccc(Cl)c(C(F)(F)F)c1)c1cccc(Cn2cc(CCCP(=O)(O)O)nn2)c1 [Example 26] | – | –
